Experimental data taken from patent US12378518B2, “Differentiation induction from human pluripotent stem cells into hypothalamic neurons” (National University Corporation Nagoya University, priority 2016, dated 2025).
Entries after “also recorded” stand apart in the source; their conditions may differ. Ends that are not written are not given here.

Legend:
Assay type in all cases: cell-based
[1] = test system: AVP neurons induced from human ES cells (KhES-1); test: KCl stimulation test of induced AVP neurons (AVP hormone by RIA method); details: isotonic solution containing 0.1% potassium chloride for 30 minutes; cells on Day 180 of culture
From the text: As a result of continuing suspension culture under the dorsal hypothalamus induction conditions, the expression of Otp and Brn2 (generally, Otp and Brn2 positive hypothalamus is thought to be in the precursor state of AVP neurons) was confirmed on Day 60 of culture (FIG. 6), and a small number of AVP-positive cells were observed on Day 103 of culture (FIG. 7). In order to improve the induction efficiency, the incorporation of dissociation culture, which is considered to be advantageous in neurogenesis, was decided. Specifically, differentiation induction was attempted under the following conditions. Cell aggregates were dispersed, and cells were seeded at 2×10^4 to 40×10^4 cells/cm^2 on glass plates coated with Laminin, Poly-D-Lysine and Matrigel, respectively, and subjected to plane culture in media obtained by adding NT3, BDNF, CNTF, and FBS, respectively, to a DFNB medium. Medium exchange was carried out at a frequency of once every 3 days.
As a result of differentiation induction under the above conditions, the appearance of AVP neurons was confirmed on Day 150 of culture (FIG. 8). […] First, the medium after used for cell culture for 3 days was recovered, and the AVP hormone in the medium was measured by RIA method. […]

CRH-R1 = target: T1, CRH-R1 (Homo sapiens, UniProt P34998); test: ACTH suppression test using a CRH-R1 inhibitor; details: CRH-R1 inhibitor 10^−5 M added at the time of stimulation with CRH addition
T1 construct: it was confirmed, by analysis by the fluorescent antibody method, that ACTH positive cells were CRH-R1 positive; endogenous in cells; host or cells: pituitary tissue (ACTH-positive cells) differentiated from human iPS cells, 201B7 strain
T1 sequence (P34998 24-415): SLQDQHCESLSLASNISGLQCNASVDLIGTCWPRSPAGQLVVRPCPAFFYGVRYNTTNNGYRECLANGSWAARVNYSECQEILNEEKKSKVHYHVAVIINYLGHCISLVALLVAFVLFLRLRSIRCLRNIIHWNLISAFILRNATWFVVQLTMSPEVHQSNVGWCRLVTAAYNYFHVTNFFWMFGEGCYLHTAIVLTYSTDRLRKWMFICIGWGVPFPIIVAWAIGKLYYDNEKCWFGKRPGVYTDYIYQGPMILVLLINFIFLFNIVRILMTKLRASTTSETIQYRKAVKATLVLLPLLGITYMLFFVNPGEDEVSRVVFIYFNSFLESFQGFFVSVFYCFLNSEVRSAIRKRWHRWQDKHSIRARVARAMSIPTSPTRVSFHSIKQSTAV
Procedure: (§1) Human iPS cells (201B7 strain) were cultured under conditions (see column A.2) that were effective for simultaneous maturation of hypothalamus and pituitary. Pituitary tissue and hypothalamic tissue were observed on Day 60 of culture, and ACTH neurons were detected in pituitary tissue. In addition, the amount of ACTH secreted from pituitary tissue was increased by long-term culture (FIG. 19), and it was confirmed that the maturation of pituitary tissue had progressed with the lapse of culture time.
To further evaluate the function of pituitary tissue obtained by culture under the conditions in (1), an ACTH suppression test using a CRH-R1 inhibitor (Antalarmin, NBI2719) was performed (right in FIG. 23). A CRH-R1 inhibitor was added at a dose of 10^−5 M (test group) at the time of stimulation with CRH addition, and the amount of ACTH secreted was compared with that when no CRH-R1 inhibitor was added (control group). As a result of the test, the secretion of ACTH was suppressed by the CRH-R1 inhibitor (left and center in FIG. 23).

human ES cells (KhES-1) = test: Differentiation induction of human ES cells by SFEBq method, analysed by fluorescent antibody method; details: Day 30 of culture
From the text: Next, it was examined whether the method can be applied also to human ES cells. Human ES cells (KhES-1) were subjected to maintenance culture by a conventional method on MEF and then used. To monitor differentiation induction into a hypothalamic tissue, KhES-1 wherein a Venus cDNA has been knocked-in into the gene of Rx which is a hypothalamic nerve marker was used. To differentiate human ES cells by Serum-Free Embryonic Body quick method (SFEBq method), human ES cells were dispersed to single cells using an enzyme by the method of Nakano et al. (Cell Stem Cell. 2012 Jun. 14; 10 (6): 771-85), and reaggregated using a low cell adhesive V-bottom 96-well plate (Sumitomo Bakelite Co., Ltd.). Ten thousand (10,000) cells were seeded per well and cultured in a gfCDM differentiation medium at 37° C. under 5% CO2. With the day of seeding defined as Day 0 of differentiation culture, 20 μM Y-27632 (ROCK inhibitor: cell death suppressor at the time of dispersion: Watanabe et al. (Nat Biotechnol. 2007 June; 25 (6): 681-6. Epub 2007 May 27.)) was added from Day 0 to Day 3, and, on and after Day 3 of culture, a half of the medium was exchanged with a differentiation medium free from Y-27632 at a frequency of once every 3 days. Based on the thought that no aggregate was formed due to nutritional deficiency, a small amount of a serum alternative KSR was added to the gfCDM to verify the effect. Specifically, the SFEBq method was performed by mixing 2%, 5%, 10%, and 20% KSR in the gfCDM medium. On and after Day 18, the oxygen partial pressure during culture was set to 40%. The differentiation of the tissue was analyzed by a fluorescent antibody method. Based on the thought that the positional shift to the telencephalon was caused by various growth factors included in KSR, the addition of a bone morphogenetic protein signal transduction pathway activating substance was decided. Specifically, differentiation induction was attempted under the following conditions. […]

[2] = test system: pituitary tissue (ACTH neurons) from human iPS cells (201B7 strain); test: ACTH stimulation test using CRH; details: CRH added at 5 μg/ml; pituitary tissue from human iPS cells (201B7)
Procedure: as §1
In order to evaluate the function of pituitary tissue obtained by culture under the conditions in (1), an ACTH stimulation test using CRH (right in FIG. 21) was performed. The test method was in accordance with the previously reported method (Ozone C et al., Functional anterior pituitary generated in self-organizing culture of human embryonic stem cells. Nat Commun. 2016 Jan. 14; 7: 10351.) (CRH was added at 5 μg/ml). […] In addition, it was confirmed, by analysis by the fluorescent antibody method, that ACTH positive cells were CRH-R1 positive (center in FIG. 21).

[3] = SAG 0.5 μM with BMP signal activating substance 1.5 to 2.0 nM from Day 6

`[Cl-].[K+]` [potassium chloride] was tested, and the “response of AVP neurons (AVP hormone secretion) to stimulation” value [1] was “responded well”.

With `CCCCN(CC)c1nc(C)nc2c1c(C)c(C)n2-c1c(C)cc(C)cc1C` [Antalarmin] the “amount of ACTH secreted vs control group without CRH-R1 inhibitor” value (CRH-R1) was “suppressed”.

In the case of `CN[C@H]1CC[C@H](N(Cc2cccc(-c3ccncc3)c2)C(=O)c2sc3ccccc3c2Cl)CC1` [SAG], the “differentiation efficiency of hypothalamic precursor cells” value (human ES cells (KhES-1); [3]) is reported as “exceeded 80%” and the “marker expression of cell aggregates” value (human ES cells (KhES-1); [3]) is reported as “co-positive for Rx and Pax6 and Chx10 negative”.

In the case of “CRH: corticotropin releasing hormone, added at 5 μg/ml in the ACTH stimulation test (SEEPPISLDLTFHLLREVLEMARAEQLAQQAHSNRKLMEII; ends and bridges not checked; UniProt P06850 154-194, looked up)”, the “ACTH secretion in response to CRH” value [2] is reported as “ACTH was secreted in response to CRH”.

B1: BMP4: bone morphogenetic protein signal transduction pathway activating substance; a known cytokine (protein, UniProt P12644 293-408, looked up)
Bone morphogenetic protein 4: SPKHHSQRARKKNKNCRRHSLYVDFSDVGWNDWIVAPPGYQAFYCHGDCPFPLADHLNSTNHAIVQTLVNSVNSSIPKACCVPTELSAISMLYLDEYDKVVLKNYQEMVVEGCGCR
For B1, the marker expression (human ES cells (KhES-1); about 3.0 nM from Day 6, KSR-containing gfCDM) was “Rx as a hypothalamic marker and Pax6 as a dorsal marker became co-positive; also recorded: the retinal marker Chx10 also became positive”.
